What all share (assay type): functional
Assay [1] has as its system Escherichia coli. Nature of the assay: Antibacterial activity against Escherichia coli ATCC 25922 after 24 hr by disk diffusion method. Background: Agar diffusion results depend on both activity and mobility in agar.
The subject of assay [2] is Klebsiella pneumoniae. Kind of assay: Antibacterial activity against Klebsiella pneumoniae clinical isolate after 24 hr by disk diffusion method.
Assay [3] has as its system Talaromyces marneffei. Nature of the assay: Antifungal activity against Talaromyces marneffei incubated for 48 hr followed by subculturing measured after 48 hr.
Assay [4] deals with Talaromyces marneffei. Nature of the assay: Antifungal activity against Talaromyces marneffei by disk diffusion method.
The subject of assay [5] is Trichophyton mentagrophytes. Nature of the assay: Antifungal activity against Trichophyton mentagrophytes by disk diffusion method.
In assay [6] the test system is Escherichia coli. Kind of assay: Antibacterial activity against Escherichia coli ATCC 25922 incubated for 24 hr followed by subculturing measured after 18 to 24 hr.
Assay [7] concerns Candida albicans. Kind of assay: Antifungal activity against Candida albicans after 48 hr.
In assay [8] the test system is Trichophyton mentagrophytes. Kind of assay: Antifungal activity against Trichophyton mentagrophytes after 48 hr.
Assay [9] relates to Pseudomonas aeruginosa. Kind of assay: Antibacterial activity against Pseudomonas aeruginosa ATCC 27853 after 24 hr by broth dilution method. The settings on record: ATCC 27853, 24 h. In general terms: Dilution methods test growth across graded concentrations, often in twofold steps.
Assay [10] concerns Klebsiella pneumoniae. Nature of the assay: Antibacterial activity against Klebsiella pneumoniae clinical isolate after 24 hr by broth dilution method.
The subject of assay [11] is Streptococcus pyogenes. Nature of the assay: Antibacterial activity against Streptococcus pyogenes after 24 hr by disk diffusion method.
In assay [12] the test system is Pseudomonas aeruginosa. Nature of the assay: Antibacterial activity against Pseudomonas aeruginosa ATCC 27853 incubated for 24 hr followed by subculturing measured after 18 to 24 hr.
Assay [13] relates to Escherichia coli. Nature of the assay: Antibacterial activity against Escherichia coli ATCC 25922 after 24 hr by broth dilution method. The note with it: ATCC 25922, 24 h.
Assay [14] deals with Aspergillus fumigatus. Nature of the assay: Antifungal activity against Aspergillus fumigatus after 48 hr.
The subject of assay [15] is Trichophyton mentagrophytes. Kind of assay: Antifungal activity against Trichophyton mentagrophytes incubated for 48 hr followed by subculturing measured after 48 hr.
Assay [16] relates to Streptococcus pyogenes. Nature of the assay: Antibacterial activity against Streptococcus pyogenes after 24 hr by broth dilution method.
Assay [17] deals with Pseudomonas aeruginosa. Kind of assay: Antibacterial activity against Pseudomonas aeruginosa ATCC 27853 after 24 hr by disk diffusion method.
In assay [18] the test system is Talaromyces marneffei. Kind of assay: Antifungal activity against Talaromyces marneffei after 48 hr.
Assay [19] concerns Klebsiella pneumoniae. Kind of assay: Antibacterial activity against Klebsiella pneumoniae clinical isolate incubated for 24 hr followed by subculturing measured after 18 to 24 hr.
Assay [20] relates to Candida albicans. Nature of the assay: Antifungal activity against Candida albicans by disk diffusion method.
The subject of assay [21] is Streptococcus pyogenes. Kind of assay: Antibacterial activity against Streptococcus pyogenes incubated for 24 hr followed by subculturing measured after 18 to 24 hr.
In assay [22] the test system is Aspergillus fumigatus. Nature of the assay: Antifungal activity against Aspergillus fumigatus by disk diffusion method.
In assay [23] the test system is Aspergillus fumigatus. Kind of assay: Antifungal activity against Aspergillus fumigatus incubated for 48 hr followed by subculturing measured after 48 hr.
The test system of assay [24] is Candida albicans. Nature of the assay: Antifungal activity against Candida albicans incubated for 48 hr followed by subculturing measured after 48 hr.
Assay [25] concerns Staphylococcus aureus. Nature of the assay: Antibacterial activity against methicillin-resistant Staphylococcus aureus after 24 hr by broth dilution method.
The test system of assay [26] is Staphylococcus aureus. Kind of assay: Antibacterial activity against methicillin-resistant Staphylococcus aureus incubated for 24 hr followed by subculturing measured after 18 to 24 hr.
Assay [27] deals with Staphylococcus aureus. Nature of the assay: Antibacterial activity against methicillin-resistant Staphylococcus aureus at 30 ug/disk after 24 hr by disk diffusion method. The note with it: read-out: DIZ.
Assay [28] relates to Pseudomonas aeruginosa. Kind of assay: Antibacterial activity against Pseudomonas aeruginosa ATCC 27853 at 30 ug/disk after 24 hr by disk diffusion method. The note with it: ATCC 27853, 24 h, read-out: DIZ.
Assay [29] concerns Klebsiella pneumoniae. Nature of the assay: Antibacterial activity against Klebsiella pneumoniae clinical isolate at 30 ug/disk after 24 hr by disk diffusion method. The note with it: read-out: DIZ.
For assay [30], the system named is Streptococcus pyogenes. Nature of the assay: Antibacterial activity against Streptococcus pyogenes at 30 ug/disk after 24 hr by disk diffusion method. The note with it: read-out: DIZ.
Assay [31] deals with Escherichia coli. Kind of assay: Antibacterial activity against Escherichia coli ATCC 25922 at 30 uig/disk after 24 hr by disk diffusion method.

≈ marks a conversion by molar mass, not a printed value.

The MFC is the smallest concentration meeting the test's criterion for killing the fungus. Lower therefore signals greater fungicidal potency. The MBC is the lowest tested concentration that kills the bacteria rather than only halting them. A high value points to weaker bactericidal potency. The MIC is the lowest concentration that inhibits growth of the organism. Low values mean a more susceptible organism, high ones a less susceptible organism. Take `CCCCCCCCCCCCCCCC(=O)NN1C(=O)CSC1c1ccc(Cl)cc1` (stereo not given): the “diameter of the inhibition zone (DIZ)” value is recorded as 23.3 mm in the assay on Escherichia coli [1]; 21.4 mm in the assay with Klebsiella pneumoniae [2]; 15.2 mm in the assay with Talaromyces marneffei [4]; 19.5 mm in [5]; 20.4 mm in the assay on Streptococcus pyogenes [11]; 27.2 mm in the assay on Pseudomonas aeruginosa [17]. Besides, the “diameter of the inhibition zone (DIZ)” value was 27.3 mm with Candida albicans [20] and 22.6 mm in the assay on Aspergillus fumigatus [22]. Also, the MFC was found to be 25 mg/L (≈ 53.5 µM) against Talaromyces marneffei [3], 25 mg/L (≈ 53.5 µM) in [15], 25 mg/L (≈ 53.5 µM) in the assay on Aspergillus fumigatus [23] and 12.5 mg/L (≈ 26.8 µM) in the assay on Candida albicans [24]. For the same compound, the MBC against Escherichia coli [6] was 25 mg/L (≈ 53.5 µM); in the assay on Pseudomonas aeruginosa [12], 25 mg/L (≈ 53.5 µM); with Klebsiella pneumoniae [19] it was 50 mg/L (≈ 107 µM); against Streptococcus pyogenes [21], 25 mg/L (≈ 53.5 µM). Also, the MIC was determined as 6.25 mg/L (≈ 13.4 µM) against Candida albicans [7]; 6.25 mg/L (≈ 13.4 µM) in assay [8]; 12.5 mg/L (≈ 26.8 µM) in the assay on Pseudomonas aeruginosa [9]; 12.5 mg/L (≈ 26.8 µM) with Klebsiella pneumoniae [10]; 12.5 mg/L (≈ 26.8 µM) with Escherichia coli [13]; 6.25 mg/L (≈ 13.4 µM) with Aspergillus fumigatus [14]. The MIC in the assay on Streptococcus pyogenes [16] and in the assay on Talaromyces marneffei [18] was 12.5 mg/L (≈ 26.8 µM) throughout.

With `C=CCCCCCCCCC(=O)NN1C(=O)CSC1c1ccc(Cl)cc1` (stereo not given), the “diameter of the inhibition zone (DIZ)” value in the assay with Escherichia coli [1] turned out to be 19.8 mm; with Klebsiella pneumoniae [2], 18.3 mm; in the assay with Talaromyces marneffei [4], 14.6 mm; in [5], 19.2 mm; in the assay on Streptococcus pyogenes [11] it was 20.2 mm; in the assay with Pseudomonas aeruginosa [17], 22.3 mm. Besides, the “diameter of the inhibition zone (DIZ)” value in the assay on Candida albicans [20] is given as 27.1 mm; with Aspergillus fumigatus [22], 22.2 mm. Further, the MFC against Talaromyces marneffei [3] is 25 mg/L (≈ 63.3 µM); in assay [15], 50 mg/L (≈ 127 µM); against Aspergillus fumigatus [23], 25 mg/L (≈ 63.3 µM); against Candida albicans [24], 25 mg/L (≈ 63.3 µM). Further, the MBC with Escherichia coli [6] came out at 50 mg/L (≈ 127 µM); against Pseudomonas aeruginosa [12], 25 mg/L (≈ 63.3 µM); in the assay with Klebsiella pneumoniae [19], 50 mg/L (≈ 127 µM); against Streptococcus pyogenes [21], 50 mg/L (≈ 127 µM). For the same compound, the MIC is 12.5 mg/L (≈ 31.6 µM) in the assay with Candida albicans [7]; 12.5 mg/L (≈ 31.6 µM) in [8]; 12.5 mg/L (≈ 31.6 µM) against Pseudomonas aeruginosa [9]; 25 mg/L (≈ 63.3 µM) in the assay on Klebsiella pneumoniae [10]; 25 mg/L (≈ 63.3 µM) in the assay on Escherichia coli [13]; 12.6 mg/L (≈ 31.8 µM) against Aspergillus fumigatus [14]. Moreover, the MIC in the assay on Streptococcus pyogenes [16] was found to be 25 mg/L (≈ 63.3 µM); with Talaromyces marneffei [18], 12.5 mg/L (≈ 31.6 µM).

Take `O=C(N[C@H](CO)[C@H](O)c1ccc([N+](=O)[O-])cc1)C(Cl)Cl` [CHLORAMPHENICOL]: the MBC worked out at 12.5 mg/L (≈ 38.7 µM) against Escherichia coli [6]; 12.5 mg/L (≈ 38.7 µM) against Staphylococcus aureus [26]; 25 mg/L (≈ 77.4 µM) in the assay with Pseudomonas aeruginosa [12]; 25 mg/L (≈ 77.4 µM) with Klebsiella pneumoniae [19]; 12.5 mg/L (≈ 38.7 µM) with Streptococcus pyogenes [21]. Further, the MIC against Pseudomonas aeruginosa [9] turned out to be 12.5 mg/L (≈ 38.7 µM); with Klebsiella pneumoniae [10], 6.25 mg/L (≈ 19.3 µM); in the assay with Staphylococcus aureus [25] it was 6.25 mg/L (≈ 19.3 µM); with Escherichia coli [13], 6.25 mg/L (≈ 19.3 µM); against Streptococcus pyogenes [16] it was 12.5 mg/L (≈ 38.7 µM). For the same compound, the zone of inhibition at 30 µg/disc with Staphylococcus aureus [27] stood at 22 mm; in the assay with Pseudomonas aeruginosa [28], 32 mm; in the assay on Klebsiella pneumoniae [29], 19 mm; in the assay on Streptococcus pyogenes [30] it was 23 mm. In the assay on Escherichia coli [31], the “diameter of the inhibition zone (DIZ)” value is reported as 27 mm.

`COC1=CC(=O)C[C@@H](C)[C@]12Oc1c(Cl)c(OC)cc(OC)c1C2=O` [GRISEOFULVIN]: the MFC against Talaromyces marneffei [3] turned out to be 25 mg/L (≈ 70.9 µM); in assay [15], 25 mg/L (≈ 70.9 µM); in the assay with Aspergillus fumigatus [23] it was 12.5 mg/L (≈ 35.4 µM); against Candida albicans [24], 25 mg/L (≈ 70.9 µM). Also, the “diameter of the inhibition zone (DIZ)” value in the assay with Talaromyces marneffei [4] turned out to be 20 mm; in assay [5], 24 mm; with Candida albicans [20], 30 mm; in the assay with Aspergillus fumigatus [22] it was 27 mm. The MIC against Candida albicans [7] was 6.25 mg/L (≈ 17.7 µM); in [8], 6.25 mg/L (≈ 17.7 µM); against Aspergillus fumigatus [14], 12.5 mg/L (≈ 35.4 µM); against Talaromyces marneffei [18] it was 12.5 mg/L (≈ 35.4 µM).

The record behind these values is ChEMBL document CHEMBL3045892, “Synthesis and evaluation of in vitro antimicrobial activity of novel 2,3-disubstituted-4-thiazolidinones from fatty acid hydrazides” (2013).
